Experimental data taken from patent US10940139B2, “Compounds that interact with the Ras superfamily for the treatment of cancers, inflammatory diseases, rasopathies, and fibrotic disease” (Shy Therapeutics LLC, priority 2017, dated 2021).

Tests used:
KRas G12D mutant protein = KRas G12D mutant protein (Homo sapiens (Human), UniProt P01116, G12D); experiment: Ras GTP binding domain inhibition assay (labeled GTP); conditions: at 20 μM; read-out: KRas G12D % Inh.
[1] = target: KRas G12D/Q61H double mutant (Homo sapiens (Human), UniProt P01116, G12D/Q61H); experiment: as above; conditions: at 20 μM; read-out: KRas G12D Q61H % Inh.
KRas G12D/Q61H double mutant, sequence (P01116-2 other isoform, or with tags, fused parts or gaps G12D/Q61H): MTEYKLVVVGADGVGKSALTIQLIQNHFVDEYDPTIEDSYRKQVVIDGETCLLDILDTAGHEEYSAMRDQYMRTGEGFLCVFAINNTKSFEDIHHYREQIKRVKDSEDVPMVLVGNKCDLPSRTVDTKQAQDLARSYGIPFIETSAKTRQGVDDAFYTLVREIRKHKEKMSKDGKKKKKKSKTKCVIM
Outline: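 Fluorescence read-out of Cy3-/Cy5-GTP remaining bound to nickel-immobilized His-KRas after washes. Protein was coated overnight at 4° C, then exposed to compound for 3 h at room temperature before a 45 min labeled-GTP incubation.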

Rac-1 = Rac-1 (Homo sapiens (Human), UniProt P63000); experiment: Rac inhibition assay (labeled GTP); assay type: binding; conditions: read-out: Rac-1 % Inh.
Rho-A = Rho-A (Homo sapiens (Human), UniProt P61586); experiment: Rho inhibition assay (labeled GTP); assay type: binding; conditions: read-out: Rho-A % Inh.
Rho-A, sequence (P61586 whole entry): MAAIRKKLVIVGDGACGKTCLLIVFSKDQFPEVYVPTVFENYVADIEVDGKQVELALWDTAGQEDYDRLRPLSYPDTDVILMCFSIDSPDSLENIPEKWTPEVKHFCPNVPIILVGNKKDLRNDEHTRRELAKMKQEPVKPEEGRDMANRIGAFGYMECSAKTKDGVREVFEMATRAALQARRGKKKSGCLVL

KRas G12D mutant protein, sequence (P01116-2 other isoform, or with tags, fused parts or gaps G12D): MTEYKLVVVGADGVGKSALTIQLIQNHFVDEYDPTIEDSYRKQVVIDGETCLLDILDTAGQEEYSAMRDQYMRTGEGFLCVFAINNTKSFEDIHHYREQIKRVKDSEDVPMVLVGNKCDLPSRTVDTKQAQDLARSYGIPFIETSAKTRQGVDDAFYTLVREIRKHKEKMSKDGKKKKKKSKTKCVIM

Row | Structure (SMILES) | inhibition at 20 µM (KRas G12D mutant protein) | inhibition at 20 µM [1] | inhibition at 20 µM (Rac-1) | inhibition at 20 µM (Rho-A)
1 | Oc1nc(-c2ccccn2)nc2c(-c3ccccc3F)csc12 [drawing 3740] | 51 to 75% | 51 to 75% | 76 to 100% | 76 to 100%
2 | COc1ccccc1-c1csc2c(O)nc(-c3ccccn3)nc12 [drawing 3742] | 51 to 75% | 25 to 50% | 76 to 100% | 51 to 75%
3 | Oc1nc(-c2ccccn2)nc2c(-c3ccc(F)cc3F)csc12 [drawing 3743] | 51 to 75% | 51 to 75% | 51 to 75% | 51 to 75%
4 | COc1cccc(-c2csc3c(O)nc(-c4ccccn4)nc23)c1 [drawing 3744] | 76 to 100% | 25 to 50% | 51 to 75% | 51 to 75%
5 | Oc1nc(-c2ccccn2)nc2c(-c3cccc(C(F)(F)F)c3)csc12 [drawing 3745] | 51 to 75% | 25 to 50% | 51 to 75% | 25 to 50%
6 | COc1ccc(F)cc1-c1csc2c(O)nc(-c3ccccn3)nc12 [drawing 3746] | 51 to 75% | 51 to 75% | 51 to 75% | 51 to 75%
7 | Oc1nc(-c2ccccn2)nc2c(-c3ccsc3)csc12 [drawing 3747] | 51 to 75% | 25 to 50% | 76 to 100% | 51 to 75%
8 | Oc1nc(-c2ccccn2)nc2c(-c3ccc(OC(F)F)cc3F)csc12 [drawing 3748] | 51 to 75% | 51 to 75% | 76 to 100% | 76 to 100%
9 | Oc1nc(-c2ccccn2)nc2c(-c3ccc4c(c3)OCO4)csc12 [drawing 3751] | 51 to 75% | 51 to 75% | 76 to 100% | 51 to 75%
10 | CC(C)(O)c1ccc(-c2csc3c(O)nc(-c4ccccn4)nc23)c(F)c1 [drawing 3752] | 51 to 75% | 51 to 75% | 76 to 100% | 51 to 75%
11 | COc1ccc(-c2csc3c(O)nc(-c4ccccn4)nc23)c(C)c1 [drawing 3753] | 51 to 75% | 51 to 75% | 76 to 100% | 76 to 100%
12 | CNC(=O)c1ccc(-c2csc3c(O)nc(-c4ccccn4)nc23)cc1C [drawing 3757] | 25 to 50% | 25 to 50% | 51 to 75% | 51 to 75%
13 | OCC1(c2ccc(-c3csc4c(O)nc(-c5ccccn5)nc34)cc2)CC1 [drawing 3758] | 76 to 100% | 51 to 75% | 76 to 100% | 76 to 100%
14 | Cc1cnccc1-c1csc2c(O)nc(-c3ccccn3)nc12 [drawing 3760] | 51 to 75% | 51 to 75% | 76 to 100% | 76 to 100%
15 | O=C(CCn1ccnc1)Nc1nc(-c2ccccn2)nc2sccc12 [drawing 3761] | 76 to 100% | 51 to 75% | 76 to 100% | 76 to 100%
16 | O=C(CCc1nn[nH]n1)Nc1nc(-c2ccccn2)nc2sccc12 [drawing 3762] | 51 to 75% | 51 to 75% | 76 to 100% | 76 to 100%
17 | O=C(CCc1cncnc1)Nc1nc(-c2ccccn2)nc2sccc12 [drawing 3763] | 51 to 75% | 51 to 75% | 76 to 100% | 76 to 100%
18 | Oc1nc(-c2ccccn2)nc2c(-c3ccccn3)csc12 [drawing 3768] | 25 to 50% | 1 to 25% | 51 to 75% | 51 to 75%
19 | CN1CCN(c2nc(-c3ccccn3)nc3scc(C(=O)NCCc4cnc(O)nc4)c23)CC1 [drawing 3771] | 51 to 75% | 25 to 50% | 51 to 75% | 51 to 75%
20 | Oc1nc(-c2ccccn2)nc2c(-c3cc(F)cc(F)c3)csc12 [drawing 3772] | 51 to 75% | 51 to 75% | 51 to 75% | 51 to 75%
21 | CN(C)Cc1ccc(F)c(-c2csc3c(O)nc(-c4ccccn4)nc23)c1 [drawing 3773] | 51 to 75% | 25 to 50% | 51 to 75% | 76 to 100%
22 | Cc1sc2c(O)nc(-c3ccccn3)nc2c1-c1ccccc1 [drawing 3777] | 51 to 75% | 51 to 75% | 51 to 75% | 51 to 75%
23 | Cc1sc2c(O)nc(-c3ccccn3)nc2c1-c1cccnc1 [drawing 3786] | 51 to 75% | 25 to 50% | 51 to 75% | 25 to 50%

Row | Structure (SMILES) | inhibition at 20 µM (KRas G12D mutant protein) | inhibition at 20 µM [1] | inhibition at 20 µM (Rac-1) | inhibition at 20 µM (Rho-A)
24 | COc1cnc(-c2ccccn2)nc1O [drawing 3787] | 51 to 75% | 51 to 75% | 76 to 100% | 76 to 100%
25 | COc1nc(-c2ccccn2)nc2c(C3CCCC3)csc12 [drawing 3789] | 25 to 50% | 51 to 75% | 76 to 100% | 51 to 75%
26 | Cc1c(C(=O)O)sc2c(O)nc(-c3ccccn3)nc12 [drawing 3794] | 25 to 50% | 51 to 75% | 76 to 100% | 51 to 75%
27 | Oc1nc(-c2ccccn2)nc2c(C3CCC3)csc12 [drawing 3797] | 51 to 75% | 51 to 75% | 76 to 100% | 76 to 100%
28 | CC(C)Oc1cnc(-c2ccccn2)nc1O [drawing 3800] | 51 to 75% | 51 to 75% | 76 to 100% | 76 to 100%
29 | Oc1nc(-c2ccccn2)nc2c(CC3CCNCC3)csc12 [drawing 3805] | 51 to 75% | 51 to 75% | 51 to 75% | 76 to 100%
30 | CC(C)c1csc2c(O)nc(-c3ccccn3)nc12 [drawing 3806] | 51 to 75% | 51 to 75% | 51 to 75% | 51 to 75%
31 | COc1ccc(CCC(=O)Nc2nc(-c3ccccn3)nc3sccc23)cn1 [drawing 3812] | 51 to 75% | 51 to 75% | 76 to 100% | 76 to 100%
32 | CC(C)Cc1csc2c(O)nc(-c3ccccn3)nc12 [drawing 3813] | 51 to 75% | 51 to 75% | 76 to 100% | 76 to 100%
33 | Oc1nc(-c2ccccn2)nc2c(C3CCCC3)csc12 [drawing 3814] | 51 to 75% | 51 to 75% | 76 to 100% | 76 to 100%
34 | COc1cnc(-c2cn(C)cn2)nc1O [drawing 3815] | 51 to 75% | 51 to 75% | 76 to 100% | 76 to 100%
35 | Cc1sc2c(O)nc(-c3ccccn3)nc2c1-c1ccncc1 [drawing 3816] | 51 to 75% | 51 to 75% | 51 to 75% | 25 to 50%
36 | Oc1cccc(-c2csc3c(O)nc(-c4ccccn4)nc23)n1 [drawing 3817] | 51 to 75% | 51 to 75% | 76 to 100% | 76 to 100%
37 | Oc1nc(-c2ccccn2)nc2c(-c3cc(CN4CCCC4)ccc3F)csc12 [drawing 3821] | 76 to 100% | 51 to 75% | 76 to 100% | 76 to 100%
38 | Cc1nn(C(C)C)cc1-c1csc2c(O)nc(-c3ccccn3)nc12 [drawing 3825] | 51 to 75% | 51 to 75% | 76 to 100% | 76 to 100%
39 | Cc1sc2c(O)nc(-c3ccccn3)nc2c1C(=O)N1CCN(c2ccccc2)CC1C (stereo not shown) [drawing 3828] | 51 to 75% | 51 to 75% | 51 to 75% | 51 to 75%
40 | COc1cnc(-c2nccn2C)nc1O [drawing 3831] | 76 to 100% | 76 to 100% | 76 to 100% | 76 to 100%
41 | Nc1cccc(-c2csc3c(O)nc(-c4ccccn4)nc23)n1 [drawing 3832] | 51 to 75% | 51 to 75% | 76 to 100% | 76 to 100%
42 | Cc1sc2c(O)nc(-c3ccccn3)nc2c1-c1ccccc1Cl [drawing 3833] | 51 to 75% | 51 to 75% | 76 to 100% | 76 to 100%
43 | COc1cnc(-c2cnc[nH]2)nc1O [drawing 3834] | 51 to 75% | 51 to 75% | 76 to 100% | 76 to 100%
44 | Oc1nc(-c2ccccn2)nc2c(CC3CCNC3)csc12 (stereo not shown) [drawing 3844] | 51 to 75% | 51 to 75% | 76 to 100% | 76 to 100%
45 | O=c1[nH]c(-c2ccccn2)nc2c([C@@H]3O[C@H](CO)[C@@H](O)[C@H]3O)csc12 [drawing 3845] | 25 to 50% | 25 to 50% | 51 to 75% | 51 to 75%
46 | COCCNc1nc(-c2cn(C)cn2)nc2sc(-c3ccncc3)c(-c3ccccc3)c12 [drawing 3848] | 51 to 75% | 76 to 100% | 76 to 100% | 76 to 100%
